# Results: ChEMBL document CHEMBL5728462, “Disubstituted compounds for treatment of medical disorders” (2021)
# Target: Complement factor D (Homo sapiens, UniProt P00746)
# Assay: Human Factor D Assay: Human Factor D (purified from human serum, Complement Technology, Inc.) at 80 nM final concentration is incubated with test compound at various concentrations for 5 minutes at room temperature in 50 mM Tris, 1M NaCl, pH 7.5. A synthetic substrate Z-L-Lys-SBzl and DTNB (Ellman's reagent) are added to final concentrations of 100 μM each. Absorbance at 405 nm (A405) is recorded at 30 second intervals for 30 minutes using a microplate spectrophotometer. IC50 values are calculated by nonlinear regression of complement Factor D reaction rates as a function of test compound concentration.
# Complement factor D, sequence (P00746 whole entry): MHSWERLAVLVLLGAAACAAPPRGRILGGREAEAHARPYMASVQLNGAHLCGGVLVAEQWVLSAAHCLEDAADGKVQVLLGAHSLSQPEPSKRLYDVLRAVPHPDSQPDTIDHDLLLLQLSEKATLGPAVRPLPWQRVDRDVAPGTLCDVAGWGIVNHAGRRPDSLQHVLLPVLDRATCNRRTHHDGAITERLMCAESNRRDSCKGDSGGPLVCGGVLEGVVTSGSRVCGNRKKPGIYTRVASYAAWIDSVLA
smiles,measurement,value
CC(=O)c1nn(CC(=O)N2C[C@H](F)C[C@H]2C(=O)Nc2cccc(Br)n2)c2ccc(-c3cnc(S(C)(=O)=NC(=O)OC(C)(C)C)nc3)cc12 (stereo partly specified),IC50,< 1000 nM
